Assay results published in patent US10106536B2, “Imidazo(4,5-B) pyridin-2-yl amides as KV7 channel activators” (Knopp Biosciences LLC, priority 2013, dated 2018).

What follows are compounds tested against T1, Kv7.2/7.3 (Homo sapiens, UniProt O43525+O43526) (assay: Kv7.2/7.3 activation assay, QPatch planar patch-clamp, single concentration screen). Conditions: compound 3 μM; Kv7.2/Kv7.3 co-expressing HEK cells; steady-state current at end of 1 s pulse to −30 mV.
T1 construct: host or cells: HEK cells, tetracycline-inducible expression
Format: cell-based
Method: Kv7.2/7.3 Activation Assay
The ability of compounds to potentiate K-currents in KV7.2/7.3 containing HEK cells was assessed using planar patch-clamp on the QPatch automated screening platform.
The hKV7.2/7.3 cell line was obtained from Chantest (Cleveland, Ohio 44128) cat.# CT6147. These HEK cells will express the Kv7.2/7.3 ion channels when induced.
Cell Culture: Cells were maintained in a media containing DMEM/F12; 50/50 (GIBCO cat.#11330), 10% Fetal Bovine Serum (FBS) (GIBCO cat.#26140), 100 units/mL Penicillin-Streptomycin (GIBCO cat.#15140), 0.005 mg/mL Blasticidin (INVIVOGEN cat.# ant-bl-1), 0.5 mg/mL Geneticin (GIBCO cat.#10131), 0.1 mg/mL Zeocin (GIBCO cat.# R25001). Cells used in the electrophysiology assay were maintained in a media without Blasticidin, Geneticin and Zeocin for 2 days and channel expression was induced by adding tetracycline (BIOLINE cat.# BIO-87030) at a final concentration of […]. Cells were grown in T-175 flask to ˜75% confluency. Currents were recorded 24 hours after channel induction.
Test compounds were prepared by performing serial dilutions on a Biomek NX^P (BECKMAN COULTER). Final dilutions were made in external recording solution with a final DMSO concentration of 0.1% DMSO. For single concentration screens each plate had 10 μM retigabine as a positive control and 0.1% DMSO as a negative control.
On the day of the experiment cells were washed with Hank's Balanced Salt Solution (HBBS) (GIBCO cat.#14175) and harvested with Tryple (GIBCO cat.#12604). Cells were then centrifuged at 2000 rpm for 5 minutes and resuspended in CHO-S-SFM (GIBCO cat.#12052) at ˜3×10^6 cells/mL. Cells were stirred for 30 minutes before experiments were started. External recording solution contained (in mM): NaCl (145), KCl (4), CaCl2 (2), MgCl2 (1), HEPES (10) and Glucose (10); pH was adjusted to 7.4 with NaOH and the osmolarity was adjusted to 300-305 mOsM with sucrose if necessary. Internal solution contained (in mM): KCl (125), KF (10), EGTA (5), Na2ATP (5), MgCl2 (3.2), HEPES (5); pH was adjusted to 7.2 with KOH and the osmolarity was adjusted to 298-302 mOsM with sucrose.
Potassium channel activity was measured on the QPatch HTX (Sophion Bioscience) using QPlates with 48-wells/plate. Each cell was taken as an independent experiment and only one compound was tested per well. Potassium channel activity was elicited by holding at −80 mV and stepping to −30 mV for 1 s followed by a 100 ms pulse to −120 mV.
Baseline conditions were obtained by recording 5 sweeps in the external solution only, this was repeated for three applications of the external solution. The effect of test compounds on elicited current was then assessed by recording 5 sweeps in the presence of a 3 μM or 10 μM compound solution. The steady-state current at the end of the 1 s pulse to −30 mV was measured to determine the fold increase from baseline.

**Q.** How did the “Kv7.2/7.3 Activity at 3 μM (increase in current over baseline)” value turn out when `O=C(CC(C(F)(F)F)C(F)(F)F)Nc1nc2ccc(Cl)nc2n1C1CCC1` [Example 6, N-(5-chloro-3-cyclobutyl-3H-imidazo[4,5-b]pyridin-2-yl)-4,4,4-trifluoro-3-(trifluoromethyl)butanamide] was run?
**A.** − (<1.2-fold increase over baseline (−))

**Q.** `CC1(C)[C@H]2CC[C@@H](CC(=O)Nc3nc4cccnc4n3C3CCC3)[C@@H]1C2` [Example 24, N-(3-cyclobutyl-3H-imidazo[4,5-b]pyridin-2-yl)-2-((1S,2S,5S)-6,6-dimethylbicyclo[3.1.1]heptan-2-yl)acetamide] was tested. Which “Kv7.2/7.3 Activity at 3 μM (increase in current over baseline)” value did it give?
**A.** +++ (>6-fold increase over baseline (+++))

**Q.** `O=C(Cc1ccc(F)cc1)Nc1nc2cc(Cl)cnc2n1C1CCC1` [Example 58, N-(6-chloro-3-cyclobutyl-3H-imidazo[4,5-b]pyridin-2-yl)-2-(4-fluorophenyl)acetamide] was tested. Which “Kv7.2/7.3 Activity at 3 μM (increase in current over baseline)” value did it give?
**A.** − (<1.2-fold increase over baseline (−))

**Q.** How did the “Kv7.2/7.3 Activity at 3 μM (increase in current over baseline)” value turn out when `CC(C)(C)OCCC(=O)Nc1nc2ccc(C3CC3)nc2n1CC(F)(F)F` [Example 108, 3-(tert-butoxy)-N-(5-cyclopropyl-3-(2,2,2-trifluoroethyl)-3H-imidazo[4,5-b]pyridin-2-yl)propanamide] was run?
**A.** +++ (>6-fold increase over baseline (+++))

**Q.** With `CC(C)(C)CC(=O)Nc1nc2ccc(-c3cccnc3)nc2n1C1CCC1.Cl` [Example 151, N-(3-cyclobutyl-5-(pyridin-3-yl)-3H-imidazo[4,5-b]pyridin-2-yl)-3,3-dimethylbutanamide hydrochloride] as the compound, how does the “Kv7.2/7.3 Activity at 3 μM (increase in current over baseline)” value read?
**A.** − (<1.2-fold increase over baseline (−))

**Q.** For `O=C(CCC1(C(F)(F)F)CC1)Nc1nc2ccc(Cl)nc2n1C1CCC1` [Example 223, N-(5-chloro-3-cyclobutyl-3H-imidazo[4,5-b]pyridin-2-yl)-3-(1-(trifluoromethyl)cyclopropyl)propanamide], which “Kv7.2/7.3 Activity at 3 μM (increase in current over baseline)” value is on record?
**A.** − (<1.2-fold increase over baseline (−))

Same assay, conditions: compound 10 μM; Kv7.2/Kv7.3 co-expressing HEK cells; steady-state current at end of 1 s pulse to −30 mV

**Q.** With `CC(C)(C)OCCC(=O)Nc1nc2cccnc2n1C1CCC1` [Example 3, 3-(tert-butoxy)-N-(3-cyclobutyl-3H-imidazo[4,5-b]pyridin-2-yl)propanamide] as the compound, how does the “Kv7.2/7.3 Activity at 10 μM (increase in current over baseline)” value read?
**A.** +++ (>6-fold increase over baseline (+++))

**Q.** With `O=C(CC1CC2CCC1C2)Nc1nc2ccc(Cl)nc2n1C1CCC1` (centres unmarked) [Example 9, 2-(bicyclo[2.2.1]heptan-2-yl)-N-(5-chloro-3-cyclobutyl-3H-imidazo[4,5-b]pyridin-2-yl)acetamide] as the compound, how does the “Kv7.2/7.3 Activity at 10 μM (increase in current over baseline)” value read?
**A.** +++ (>6-fold increase over baseline (+++))

**Q.** With `CC1(C)[C@H]2CC[C@@H](CC(=O)Nc3nc4cccnc4n3C3CCC3)[C@@H]1C2` [Example 24, N-(3-cyclobutyl-3H-imidazo[4,5-b]pyridin-2-yl)-2-((1S,2S,5S)-6,6-dimethylbicyclo[3.1.1]heptan-2-yl)acetamide] as the compound, how does the “Kv7.2/7.3 Activity at 10 μM (increase in current over baseline)” value read?
**A.** +++ (>6-fold increase over baseline (+++))

**Q.** With `O=C(CCC1CCCC1)Nc1nc2ccc(Cl)nc2n1C1CCC1` [Example 27, N-(5-chloro-3-cyclobutyl-3H-imidazo[4,5-b]pyridin-2-yl)-3-cyclopentylpropanamide] as the compound, how does the “Kv7.2/7.3 Activity at 10 μM (increase in current over baseline)” value read?
**A.** +++ (>6-fold increase over baseline (+++))

**Q.** `CC(C)CC(=O)Nc1nc2ccc(Cl)nc2n1C1CCC1` [Example 28, N-(5-chloro-3-cyclobutyl-3H-imidazo[4,5-b]pyridin-2-yl)-3-methylbutanamide] was tested. Which “Kv7.2/7.3 Activity at 10 μM (increase in current over baseline)” value did it give?
**A.** +++ (>6-fold increase over baseline (+++))

**Q.** With `O=C(CC1CCCCC1)Nc1nc2ccc(Cl)nc2n1C1CCC1` [Example 29, N-(5-chloro-3-cyclobutyl-3H-imidazo[4,5-b]pyridin-2-yl)-2-cyclohexylacetamide] as the compound, how does the “Kv7.2/7.3 Activity at 10 μM (increase in current over baseline)” value read?
**A.** +++ (>6-fold increase over baseline (+++))

**Q.** `CC1(C)[C@H]2CC[C@@H](CC(=O)Nc3nc4ccc(Cl)nc4n3C3CCC3)[C@@H]1C2` [Example 33, N-(5-chloro-3-cyclobutyl-3H-imidazo[4,5-b]pyridin-2-yl)-2-((1S,2S,5S)-6,6-dimethylbicyclo[3.1.1]heptan-2-yl)acetamide] was tested. Which “Kv7.2/7.3 Activity at 10 μM (increase in current over baseline)” value did it give?
**A.** +++ (>6-fold increase over baseline (+++))

**Q.** How did the “Kv7.2/7.3 Activity at 10 μM (increase in current over baseline)” value turn out when `CCOCC(=O)Nc1nc2ccc(Cl)nc2n1C1CCC1` [Example 34, N-(5-chloro-3-cyclobutyl-3H-imidazo[4,5-b]pyridin-2-yl)-2-ethoxyacetamide] was run?
**A.** − (<1.2-fold increase over baseline (−))

**Q.** With `O=C(CCc1ccccc1)Nc1nc2ccc(Cl)nc2n1C1CCC1` [Example 35, N-(5-chloro-3-cyclobutyl-3H-imidazo[4,5-b]pyridin-2-yl)-3-phenylpropanamide] as the compound, how does the “Kv7.2/7.3 Activity at 10 μM (increase in current over baseline)” value read?
**A.** +++ (>6-fold increase over baseline (+++))

**Q.** How did the “Kv7.2/7.3 Activity at 10 μM (increase in current over baseline)” value turn out when `CC(C)Cn1c(NC(=O)CC(C)(C)C)nc2ccc(Cl)nc21` [Example 36, N-(5-chloro-3-isobutyl-3H-imidazo[4,5-b]pyridin-2-yl)-3,3-dimethylbutanamide] was run?
**A.** +++ (>6-fold increase over baseline (+++))

**Q.** How did the “Kv7.2/7.3 Activity at 10 μM (increase in current over baseline)” value turn out when `CC(C)(C)CC(=O)Nc1nc2ccc(C(F)(F)F)nc2n1C1CCC1` [Example 39, N-(3-cyclobutyl-5-(trifluoromethyl)-3H-imidazo[4,5-b]pyridin-2-yl)-3,3-dimethylbutanamide] was run?
**A.** +++ (>6-fold increase over baseline (+++))

**Q.** `CC(C)CC(=O)Nc1nc2ccc(C(F)(F)F)nc2n1C1CCC1` [Example 42, N-(3-cyclobutyl-5-(trifluoromethyl)-3H-imidazo[4,5-b]pyridin-2-yl)-3-methylbutanamide] was tested. Which “Kv7.2/7.3 Activity at 10 μM (increase in current over baseline)” value did it give?
**A.** +++ (>6-fold increase over baseline (+++))

**Q.** Which “Kv7.2/7.3 Activity at 10 μM (increase in current over baseline)” value does the source give for `O=C(CC1CCCCC1)Nc1nc2ccc(C(F)(F)F)nc2n1C1CCC1` [Example 43, N-(3-cyclobutyl-5-(trifluoromethyl)-3H-imidazo[4,5-b]pyridin-2-yl)-2-cyclohexylacetamide] here?
**A.** +++ (>6-fold increase over baseline (+++))

**Q.** With `CC1(C)[C@H]2CC[C@@H](CC(=O)Nc3nc4ccc(C(F)(F)F)nc4n3C3CCC3)[C@@H]1C2` [Example 47, N-(3-cyclobutyl-5-(trifluoromethyl)-3H-imidazo[4,5-b]pyridin-2-yl)-2-((1S,2S,5S)-6,6-dimethylbicyclo[3.1.1]heptan-2-yl)acetamide] as the compound, how does the “Kv7.2/7.3 Activity at 10 μM (increase in current over baseline)” value read?
**A.** +++ (>6-fold increase over baseline (+++))

**Q.** For `O=C(CCOC1CCCC1)Nc1nc2ccc(C(F)(F)F)nc2n1C1CCC1` [Example 91, N-(3-cyclobutyl-5-(trifluoromethyl)-3H-imidazo[4,5-b]pyridin-2-yl)-3-(cyclopentyloxy)propanamide], which “Kv7.2/7.3 Activity at 10 μM (increase in current over baseline)” value is on record?
**A.** +++ (>6-fold increase over baseline (+++))

**Q.** For `CC1(C)CCC(CC(=O)Nc2nc3ccc(C(F)(F)F)nc3n2C2CCC2)O1` (centres unmarked) [Example 96, N-(3-cyclobutyl-5-(trifluoromethyl)-3H-imidazo[4,5-b]pyridin-2-yl)-2-(5,5-dimethyltetrahydrofuran-2-yl)acetamide], which “Kv7.2/7.3 Activity at 10 μM (increase in current over baseline)” value is on record?
**A.** +++ (>6-fold increase over baseline (+++))

**Q.** `CC(C)(C)CC(=O)Nc1nc2ccc(Cl)nc2n1-c1ccc(F)cc1` [Example 105, N-(5-chloro-3-(4-fluorophenyl)-3H-imidazo[4,5-b]pyridin-2-yl)-3,3-dimethylbutanamide] was tested. Which “Kv7.2/7.3 Activity at 10 μM (increase in current over baseline)” value did it give?
**A.** +++ (>6-fold increase over baseline (+++))

**Q.** With `CC(C)Oc1ccc2nc(NC(=O)CCOC(C)(C)C)n(CC(F)(F)F)c2n1` [Example 120, 3-(tert-butoxy)-N-(5-isopropoxy-3-(2,2,2-trifluoroethyl)-3H-imidazo[4,5-b]pyridin-2-yl)propanamide] as the compound, how does the “Kv7.2/7.3 Activity at 10 μM (increase in current over baseline)” value read?
**A.** +++ (>6-fold increase over baseline (+++))

**Q.** For `O=C(CCC1CCOC1)Nc1nc2ccc(C(F)(F)F)nc2n1C1CCC1` (centres unmarked) [Example 124, N-(3-cyclobutyl-5-(trifluoromethyl)-3H-imidazo[4,5-b]pyridin-2-yl)-3-(tetrahydrofuran-3-yl)propanamide], which “Kv7.2/7.3 Activity at 10 μM (increase in current over baseline)” value is on record?
**A.** +++ (>6-fold increase over baseline (+++))

**Q.** With `Cc1ccc2nc(NC(=O)CCOC(C)(C)C)n(CC(F)(F)F)c2n1` [Example 132, 3-(tert-butoxy)-N-(5-methyl-3-(2,2,2-trifluoroethyl)-3H-imidazo[4,5-b]pyridin-2-yl)propanamide] as the compound, how does the “Kv7.2/7.3 Activity at 10 μM (increase in current over baseline)” value read?
**A.** +++ (>6-fold increase over baseline (+++))
